Measured values taken from article PMC3000536 (Tetrahedron letters, 2011).
“Also recorded” adds a separate entry of the source.

Tests used:
Rat intestinal sucrase = Rat intestinal sucrase (Rattus norvegicus, UniProt P23739); assay: Glycosidase inhibition and kinetic analysis, rat intestinal sucrase; conditions: for Mode of inhibition of rat intestinal sucrase: kinetic analysis
Rat intestinal maltase = assay: Glycosidase inhibition, rat intestinal maltase; format: biochemical; conditions: read-out: IC50 α-Glucosidase Rat intestinal maltase
[1] = target: T1, Human lysosome α-Galactosidase (Homo sapiens, UniProt P06280); assay: Glycosidase inhibition, human lysosome α-galactosidase; format: biochemical
T1 sequence (P06280 32-429): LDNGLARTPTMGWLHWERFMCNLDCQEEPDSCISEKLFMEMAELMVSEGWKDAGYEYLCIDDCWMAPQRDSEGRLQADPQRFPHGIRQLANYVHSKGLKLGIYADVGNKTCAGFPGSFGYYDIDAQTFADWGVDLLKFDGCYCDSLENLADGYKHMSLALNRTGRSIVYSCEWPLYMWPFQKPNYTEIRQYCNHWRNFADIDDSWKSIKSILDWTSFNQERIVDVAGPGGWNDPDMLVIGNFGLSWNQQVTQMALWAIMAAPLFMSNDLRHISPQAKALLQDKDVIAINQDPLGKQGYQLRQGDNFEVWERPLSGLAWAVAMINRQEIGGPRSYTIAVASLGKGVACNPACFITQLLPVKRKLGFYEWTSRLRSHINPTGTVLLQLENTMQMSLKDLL

[2] = target: T2, Bovine epididymis α-L-Fucosidase (Bos taurus, UniProt Q2KIM0); assay: Glycosidase inhibition, bovine epididymis α-L-fucosidase; format: biochemical
T2 sequence (Q2KIM0 23-468): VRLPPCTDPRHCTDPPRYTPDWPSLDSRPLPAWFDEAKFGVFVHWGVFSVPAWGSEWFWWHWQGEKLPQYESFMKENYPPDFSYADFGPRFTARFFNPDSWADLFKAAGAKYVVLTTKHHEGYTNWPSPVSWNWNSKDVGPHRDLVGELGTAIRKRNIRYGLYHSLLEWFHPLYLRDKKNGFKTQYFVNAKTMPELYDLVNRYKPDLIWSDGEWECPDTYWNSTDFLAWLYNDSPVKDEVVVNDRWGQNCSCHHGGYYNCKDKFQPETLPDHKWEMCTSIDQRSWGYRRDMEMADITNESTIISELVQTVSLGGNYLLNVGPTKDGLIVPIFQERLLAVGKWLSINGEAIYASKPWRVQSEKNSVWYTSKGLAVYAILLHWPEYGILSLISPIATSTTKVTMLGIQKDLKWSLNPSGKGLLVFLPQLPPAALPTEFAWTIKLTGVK

[3] = target: Bovine liver β-Galactosidase; assay: Glycosidase inhibition, bovine liver β-galactosidase; format: biochemical; conditions: read-out: IC50 β-Galactosidase Bovine liver
[4] = target: T3, Rat intestinal cellobiase (Rattus norvegicus, UniProt Q02401); assay: Glycosidase inhibition, rat intestinal cellobiase; format: biochemical
T3 sequence (Q02401 868-1928): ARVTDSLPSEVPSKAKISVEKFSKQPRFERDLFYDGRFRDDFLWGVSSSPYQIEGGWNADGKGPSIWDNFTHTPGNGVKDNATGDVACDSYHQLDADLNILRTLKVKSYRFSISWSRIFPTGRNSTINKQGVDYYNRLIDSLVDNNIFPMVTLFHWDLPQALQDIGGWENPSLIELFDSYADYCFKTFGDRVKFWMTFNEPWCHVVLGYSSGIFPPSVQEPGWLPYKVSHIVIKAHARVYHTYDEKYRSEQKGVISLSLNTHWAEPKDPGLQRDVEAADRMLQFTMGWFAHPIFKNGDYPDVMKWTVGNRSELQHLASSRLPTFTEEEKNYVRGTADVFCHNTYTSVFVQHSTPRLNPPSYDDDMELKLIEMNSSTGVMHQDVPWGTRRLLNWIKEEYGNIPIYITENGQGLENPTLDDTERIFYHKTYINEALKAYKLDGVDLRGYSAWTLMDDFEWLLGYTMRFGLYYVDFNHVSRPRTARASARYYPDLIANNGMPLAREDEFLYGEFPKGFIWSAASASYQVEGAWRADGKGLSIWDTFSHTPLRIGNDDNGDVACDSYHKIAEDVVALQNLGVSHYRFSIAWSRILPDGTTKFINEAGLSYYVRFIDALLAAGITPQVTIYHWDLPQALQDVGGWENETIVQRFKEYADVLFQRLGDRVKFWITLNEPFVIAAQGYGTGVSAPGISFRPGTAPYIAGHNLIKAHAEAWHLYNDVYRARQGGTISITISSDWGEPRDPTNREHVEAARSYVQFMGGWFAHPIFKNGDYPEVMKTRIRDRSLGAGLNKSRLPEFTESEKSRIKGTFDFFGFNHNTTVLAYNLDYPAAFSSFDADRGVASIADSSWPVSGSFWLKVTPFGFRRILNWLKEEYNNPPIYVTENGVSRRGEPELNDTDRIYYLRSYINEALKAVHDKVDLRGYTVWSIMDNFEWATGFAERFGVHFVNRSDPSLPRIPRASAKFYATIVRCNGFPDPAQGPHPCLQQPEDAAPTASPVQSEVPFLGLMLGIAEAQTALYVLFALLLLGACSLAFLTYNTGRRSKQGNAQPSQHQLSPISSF

[5] = target: Rat intestinal isomaltase (Rattus norvegicus, UniProt P23739); assay: Glycosidase inhibition, rat intestinal isomaltase; format: biochemical
Chain of Rat intestinal isomaltase (P23739 whole entry): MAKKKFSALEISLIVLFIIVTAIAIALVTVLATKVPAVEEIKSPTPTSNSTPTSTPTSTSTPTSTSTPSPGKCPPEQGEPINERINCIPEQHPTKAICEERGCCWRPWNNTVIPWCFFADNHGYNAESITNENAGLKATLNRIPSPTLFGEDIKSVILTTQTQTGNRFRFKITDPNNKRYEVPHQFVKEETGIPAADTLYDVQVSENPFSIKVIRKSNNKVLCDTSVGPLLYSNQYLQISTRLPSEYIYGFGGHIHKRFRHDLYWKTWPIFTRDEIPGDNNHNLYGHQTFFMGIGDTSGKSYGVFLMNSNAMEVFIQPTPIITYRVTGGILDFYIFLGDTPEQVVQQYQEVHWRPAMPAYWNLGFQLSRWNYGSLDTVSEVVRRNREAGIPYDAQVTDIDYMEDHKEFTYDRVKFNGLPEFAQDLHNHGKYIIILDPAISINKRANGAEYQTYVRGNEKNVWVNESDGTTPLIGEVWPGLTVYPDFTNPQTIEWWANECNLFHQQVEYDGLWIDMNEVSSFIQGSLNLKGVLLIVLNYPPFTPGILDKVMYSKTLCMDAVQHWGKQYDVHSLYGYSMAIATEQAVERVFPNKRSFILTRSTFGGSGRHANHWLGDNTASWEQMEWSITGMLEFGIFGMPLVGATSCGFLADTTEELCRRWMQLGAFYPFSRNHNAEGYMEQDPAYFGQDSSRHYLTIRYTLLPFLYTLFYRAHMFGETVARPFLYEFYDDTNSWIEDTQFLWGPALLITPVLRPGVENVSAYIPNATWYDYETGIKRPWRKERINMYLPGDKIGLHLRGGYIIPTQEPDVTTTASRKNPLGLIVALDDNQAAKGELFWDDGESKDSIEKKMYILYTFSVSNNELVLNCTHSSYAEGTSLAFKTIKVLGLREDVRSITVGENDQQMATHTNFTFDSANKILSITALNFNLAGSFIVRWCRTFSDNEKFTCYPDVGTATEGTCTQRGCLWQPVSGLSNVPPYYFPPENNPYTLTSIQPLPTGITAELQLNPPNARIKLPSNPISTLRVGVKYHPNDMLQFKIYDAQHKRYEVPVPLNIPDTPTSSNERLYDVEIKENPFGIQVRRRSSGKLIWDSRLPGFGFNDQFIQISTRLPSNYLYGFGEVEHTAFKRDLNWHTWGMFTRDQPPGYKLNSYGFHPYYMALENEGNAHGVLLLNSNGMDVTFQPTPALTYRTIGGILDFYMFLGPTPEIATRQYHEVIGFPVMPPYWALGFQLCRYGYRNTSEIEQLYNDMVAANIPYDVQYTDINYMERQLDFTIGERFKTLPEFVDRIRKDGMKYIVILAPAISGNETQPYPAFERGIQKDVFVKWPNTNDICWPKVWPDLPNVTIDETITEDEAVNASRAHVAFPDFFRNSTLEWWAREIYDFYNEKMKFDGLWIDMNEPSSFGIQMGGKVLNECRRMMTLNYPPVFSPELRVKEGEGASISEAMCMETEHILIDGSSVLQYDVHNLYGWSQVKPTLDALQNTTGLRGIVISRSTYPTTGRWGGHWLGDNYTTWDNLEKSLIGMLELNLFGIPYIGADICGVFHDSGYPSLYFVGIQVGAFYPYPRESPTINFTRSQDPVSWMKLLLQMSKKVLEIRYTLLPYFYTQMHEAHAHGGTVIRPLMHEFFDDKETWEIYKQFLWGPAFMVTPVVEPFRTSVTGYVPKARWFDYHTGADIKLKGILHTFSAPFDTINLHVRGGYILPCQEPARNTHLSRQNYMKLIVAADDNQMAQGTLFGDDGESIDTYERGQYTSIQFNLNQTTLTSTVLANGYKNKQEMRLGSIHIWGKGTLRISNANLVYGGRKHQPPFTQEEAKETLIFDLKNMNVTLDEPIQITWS

[6] = target: Coffee beans α-Galactosidase (Coffea arabica, UniProt Q42656); assay: Glycosidase inhibition, coffee beans α-galactosidase; format: biochemical
Chain of Coffee beans α-Galactosidase (Q42656 16-378): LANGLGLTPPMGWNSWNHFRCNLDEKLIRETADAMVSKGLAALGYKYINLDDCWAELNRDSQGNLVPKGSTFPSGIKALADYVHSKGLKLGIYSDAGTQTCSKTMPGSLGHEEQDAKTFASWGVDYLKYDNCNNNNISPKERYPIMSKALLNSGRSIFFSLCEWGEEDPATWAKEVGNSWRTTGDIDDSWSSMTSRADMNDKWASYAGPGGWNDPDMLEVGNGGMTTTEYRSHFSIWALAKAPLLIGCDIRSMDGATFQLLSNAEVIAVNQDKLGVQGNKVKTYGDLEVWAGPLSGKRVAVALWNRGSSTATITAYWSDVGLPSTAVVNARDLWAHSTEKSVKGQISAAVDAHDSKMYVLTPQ

Rat intestinal lactase = target: T4, Rat intestinal lactase (Rattus norvegicus, UniProt Q02401); assay: Glycosidase inhibition, rat intestinal lactase; format: biochemical
T4 sequence (Q02401 868-1928): T3 sequence (Q02401 868-1928)

[7] = target: T5, Rabbit muscle Glycogen phosphorylase (Oryctolagus cuniculus, UniProt P00489); assay: Glycogen phosphorylase inhibition, rabbit muscle; format: biochemical
T5 sequence (P00489 1-843): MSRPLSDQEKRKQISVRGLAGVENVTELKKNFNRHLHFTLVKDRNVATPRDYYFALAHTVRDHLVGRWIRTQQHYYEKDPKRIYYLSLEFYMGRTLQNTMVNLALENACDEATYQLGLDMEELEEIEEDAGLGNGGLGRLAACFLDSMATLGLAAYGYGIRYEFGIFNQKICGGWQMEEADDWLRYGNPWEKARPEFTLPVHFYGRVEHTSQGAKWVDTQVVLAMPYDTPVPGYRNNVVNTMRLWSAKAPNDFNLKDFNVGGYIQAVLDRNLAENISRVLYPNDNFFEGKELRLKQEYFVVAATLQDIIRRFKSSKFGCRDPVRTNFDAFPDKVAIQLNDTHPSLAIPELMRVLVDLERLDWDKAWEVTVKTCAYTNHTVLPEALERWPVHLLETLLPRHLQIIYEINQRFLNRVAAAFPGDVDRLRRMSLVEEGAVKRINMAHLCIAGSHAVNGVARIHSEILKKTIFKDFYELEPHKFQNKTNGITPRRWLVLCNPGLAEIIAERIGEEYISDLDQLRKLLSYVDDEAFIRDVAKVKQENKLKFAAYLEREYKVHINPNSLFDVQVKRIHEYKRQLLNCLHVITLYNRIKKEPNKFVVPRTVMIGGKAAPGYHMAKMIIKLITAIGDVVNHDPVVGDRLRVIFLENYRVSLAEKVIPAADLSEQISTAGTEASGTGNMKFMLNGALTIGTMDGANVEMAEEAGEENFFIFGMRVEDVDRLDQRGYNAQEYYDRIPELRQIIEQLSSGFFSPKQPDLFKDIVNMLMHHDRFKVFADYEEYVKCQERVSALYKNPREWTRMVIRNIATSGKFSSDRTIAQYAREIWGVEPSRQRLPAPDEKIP

Snail β-Mannosidase = assay: Glycosidase inhibition, snail β-mannosidase; format: biochemical; conditions: read-out: IC50 β-Mannosidase Snail
Jack beans α-Mannosidase = target: T6, Jack beans α-Mannosidase (Canavalia ensiformis, UniProt C0HJB3); assay: Glycosidase inhibition, jack beans α-mannosidase; format: biochemical
T6 sequence (C0HJB3 1-981): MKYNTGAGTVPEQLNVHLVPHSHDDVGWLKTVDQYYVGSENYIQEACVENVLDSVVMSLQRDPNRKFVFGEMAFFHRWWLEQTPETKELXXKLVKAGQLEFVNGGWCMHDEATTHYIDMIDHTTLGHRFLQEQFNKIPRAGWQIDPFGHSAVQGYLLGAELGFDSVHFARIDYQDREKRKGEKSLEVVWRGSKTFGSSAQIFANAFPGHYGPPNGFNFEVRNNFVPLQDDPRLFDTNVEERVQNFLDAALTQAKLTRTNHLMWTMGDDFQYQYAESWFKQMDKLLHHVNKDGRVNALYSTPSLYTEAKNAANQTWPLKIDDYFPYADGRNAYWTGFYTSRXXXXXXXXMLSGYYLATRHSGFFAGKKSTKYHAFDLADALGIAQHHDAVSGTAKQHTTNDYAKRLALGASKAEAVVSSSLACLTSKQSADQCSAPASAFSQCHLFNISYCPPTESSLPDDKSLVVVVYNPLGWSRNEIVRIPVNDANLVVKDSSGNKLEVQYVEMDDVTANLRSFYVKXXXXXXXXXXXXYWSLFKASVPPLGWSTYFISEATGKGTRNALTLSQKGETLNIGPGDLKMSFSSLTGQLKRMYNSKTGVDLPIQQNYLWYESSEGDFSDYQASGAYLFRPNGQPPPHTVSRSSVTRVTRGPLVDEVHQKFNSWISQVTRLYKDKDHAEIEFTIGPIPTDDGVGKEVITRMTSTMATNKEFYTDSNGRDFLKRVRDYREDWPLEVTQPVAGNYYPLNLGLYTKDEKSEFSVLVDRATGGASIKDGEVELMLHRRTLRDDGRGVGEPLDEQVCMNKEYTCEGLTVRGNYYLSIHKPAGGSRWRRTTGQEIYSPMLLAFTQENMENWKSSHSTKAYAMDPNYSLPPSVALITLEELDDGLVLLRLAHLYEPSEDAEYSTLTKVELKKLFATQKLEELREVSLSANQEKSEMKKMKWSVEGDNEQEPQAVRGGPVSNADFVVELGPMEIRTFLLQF

Rice α-Glucosidase = Rice α-Glucosidase (Oryza sativa subsp. japonica, UniProt Q653V7); assay: Glycosidase inhibition, rice α-glucosidase; format: biochemical
Chain of Rice α-Glucosidase (Q653V7 34-885): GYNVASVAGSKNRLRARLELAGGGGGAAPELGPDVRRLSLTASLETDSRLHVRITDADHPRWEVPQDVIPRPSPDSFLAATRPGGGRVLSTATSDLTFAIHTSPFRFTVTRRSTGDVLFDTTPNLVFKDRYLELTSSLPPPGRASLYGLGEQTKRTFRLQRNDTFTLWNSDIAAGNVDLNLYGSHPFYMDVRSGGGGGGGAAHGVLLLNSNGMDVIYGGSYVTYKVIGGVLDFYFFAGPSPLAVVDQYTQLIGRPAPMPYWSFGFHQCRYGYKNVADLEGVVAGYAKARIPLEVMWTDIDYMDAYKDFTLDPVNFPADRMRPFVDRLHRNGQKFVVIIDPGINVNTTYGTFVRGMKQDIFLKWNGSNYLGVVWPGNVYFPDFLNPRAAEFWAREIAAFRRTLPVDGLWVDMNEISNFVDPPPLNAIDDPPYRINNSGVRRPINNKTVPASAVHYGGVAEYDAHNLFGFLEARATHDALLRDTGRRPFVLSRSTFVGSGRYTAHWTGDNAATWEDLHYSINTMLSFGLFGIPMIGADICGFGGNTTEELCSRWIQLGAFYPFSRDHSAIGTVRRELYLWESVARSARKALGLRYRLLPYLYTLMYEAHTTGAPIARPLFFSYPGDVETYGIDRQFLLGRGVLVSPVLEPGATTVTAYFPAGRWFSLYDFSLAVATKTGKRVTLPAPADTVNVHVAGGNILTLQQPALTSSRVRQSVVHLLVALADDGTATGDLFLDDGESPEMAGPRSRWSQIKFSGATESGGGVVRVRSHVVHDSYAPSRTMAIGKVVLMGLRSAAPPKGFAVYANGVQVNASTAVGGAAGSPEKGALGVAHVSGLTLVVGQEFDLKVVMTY

Almond β-Glucosidase = assay: Glycosidase inhibition, almond β-glucosidase; format: biochemical; conditions: read-out: IC50 β-Glucosidase Almond
F508del-CFTR [8] = target: F508del-CFTR (Homo sapiens, UniProt P13569, DEL508-508); assay: CFTR function in CF-KM4 cells by single-cell fluorescence imaging; format: cell-based
F508del-CFTR [9] = conditions: ref viii; cited from earlier work
ER glucosidases = conditions: cited from earlier work

Chain of Rat intestinal sucrase (P23739 whole entry): as the sequence (P23739 whole entry) above

Row | Compound | IC50 (Rat intestinal sucrase) | Ki (Rat intestinal sucrase) | IC50 (Rat intestinal maltase) | IC50 [1] | IC50 [2] | IC50 [3] | IC50 [4] | IC50 [5] | IC50 [6] | IC50 (Rat intestinal lactase) | IC50 [7] | Inhibition of glycogen phosphorylase (in words) [7] | IC50 (Snail β-Mannosidase) | IC50 (Jack beans α-Mannosidase) | IC50 (Rice α-Glucosidase) | IC50 (Almond β-Glucosidase) | Corrector effect on CFTR function (F508del-CFTR [8]) | further results
1 | C[C@]1(CO)NC[C@@H](O)[C@@H]1O [4-C-Me-DAB 1D, 1,4-dideoxy-1,4-imino-4-C-methyl-D-arabinitol] | 0.41 µM | 0.89 µM | 0.74 µM | > 1000 µM | > 1000 µM | > 1000 µM | > 1000 µM | 3.4 µM | > 1000 µM | > 1000 µM | > 1000 µM | no significant inhibition | > 1000 µM | > 1000 µM | 7.1 µM | > 1000 µM | Neither of the 4-C-methyl pyrrolidines 1D and 1L had any corrector effect | Mode of inhibition of rat intestinal sucrase (Rat intestinal sucrase; listed as 1D): competitive inhibitor; Mode of inhibition of rat intestinal sucrase (Rat intestinal sucrase; listed as 4-C-Me-DAB): competitive
2 | C[C@@]1(CO)NC[C@H](O)[C@H]1O [4-C-Me-LAB 1L] |  | 0.95 µM | 2.4 µM | > 1000 µM | > 1000 µM | > 1000 µM | > 1000 µM | 5.1 µM | > 1000 µM | > 1000 µM | > 1000 µM | no significant inhibition | > 1000 µM | > 1000 µM | 5.8 µM | > 1000 µM | Neither of the 4-C-methyl pyrrolidines 1D and 1L had any corrector effect | Mode of inhibition of rat intestinal sucrase (Rat intestinal sucrase; listed as 1L): non-competitive inhibitor; Mode of inhibition of rat intestinal sucrase (Rat intestinal sucrase; listed as 4-C-Me-LAB): non-competitive
3 | OC[C@H]1NC[C@@H](O)[C@@H]1O [DAB 3D] |  |  |  |  | > 1000 µM | > 1000 µM | 756 µM |  | > 1000 µM |  |  |  | > 1000 µM |  |  | 250 µM |  | 
4 | OC[C@@H]1NC[C@H](O)[C@H]1O [LAB 3L] |  |  |  |  | > 1000 µM | > 1000 µM | > 1000 µM |  | > 1000 µM |  |  |  | > 1000 µM | > 1000 µM |  | > 1000 µM |  | 
5 | OC[C@@]1(O)CNC[C@H]1O [isoDAB 2D] | 15 µM |  | 24 µM | > 1000 µM | > 1000 µM | > 1000 µM | > 1000 µM | 20 µM | > 1000 µM | > 1000 µM | > 1000 µM | no significant inhibition | > 1000 µM | > 1000 µM | 41 µM | > 1000 µM |  | 
6 | OC[C@]1(O)CNC[C@@H]1O [isoLAB 2L] | > 1000 µM |  | > 1000 µM | > 1000 µM | > 1000 µM | > 1000 µM | > 1000 µM | > 1000 µM | > 1000 µM | > 1000 µM | > 1000 µM | no significant inhibition | > 1000 µM | > 1000 µM | > 1000 µM | > 1000 µM |  | Rescue of the defective F508del-CFTR function (F508del-CFTR [9]): significant rescue; also recorded: partially rescues; Inhibition of ER glucosidases (ER glucosidases): neither of which showed any inhibition
